Source: ChEMBL document CHEMBL1201862, “PubChem BioAssay data set” (2004)
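Cells were grown in 96-well plates and exposed to each compound for 48 hours at five concentrations; endpoints were interpolated linearly between bracketing concentrations, or set to the highest concentration if not reached. GI50 is the concentration that inhibits growth by half.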 The source made the active and inactive calls. No stated cut-off is given here; in the data, active = GI50 up to about 1.1 µM and inactive = higher.

Experiments:
Test in all cases: growth of human tumour cells (NCI), 48 h
HCT-116 = tested on: HCT-116
CAKI-1 = tested on: CAKI-1
ACHN = tested on: ACHN
NCI-H226 = tested on: NCI-H226
NCI-H23 = tested on: NCI-H23
M14 = tested on: M14
KM12 = tested on: KM12
SF-268 = tested on: SF-268
HL-60 = tested on: HL-60
OVCAR-5 = tested on: OVCAR-5
RXF 631 = tested on: RXF 631
OVCAR-3 = tested on: OVCAR-3
SF-539 = tested on: SF-539
SK-MEL-5 = tested on: SK-MEL-5
LXFL 529 = tested on: LXFL 529
SNB-75 = tested on: SNB-75
UACC-62 = tested on: UACC-62
DMS-114 = tested on: DMS-114
KM-20L2 = tested on: KM-20L2
HOP-62 = tested on: HOP-62
DMS-273 = tested on: DMS-273
CCRF-CEM = tested on: CCRF-CEM
XF498 = tested on: XF498
A549 = tested on: A549
OVCAR-8 = tested on: OVCAR-8
SN12C = tested on: SN12C
EKVX = tested on: EKVX
OVCAR-4 = tested on: OVCAR-4
SW-620 = tested on: SW-620
UACC-257 = tested on: UACC-257
HT-29 = tested on: HT-29
COLO 205 = tested on: COLO 205
LOX IMVI = tested on: LOX IMVI
SK-MEL-28 = tested on: SK-MEL-28
SK-OV-3 = tested on: SK-OV-3
SK-MEL-2 = tested on: SK-MEL-2
MOLT-4 = tested on: MOLT-4
NCI-H522 = tested on: NCI-H522
SR = tested on: SR
K562 = tested on: K562
U-251 = tested on: U-251
Malme-3M = tested on: Malme-3M
M19-MEL = tested on: M19-MEL
TK-10 = tested on: TK-10
NCI-H460 = tested on: NCI-H460
RPMI-8226 = tested on: RPMI-8226
HOP-18 = tested on: HOP-18
IGROV-1 = tested on: IGROV-1
HCC 2998 = tested on: HCC 2998
HCT-15 = tested on: HCT-15
DLD-1 = tested on: DLD-1
HOP-92 = tested on: HOP-92
SNB-19 = tested on: SNB-19
RXF 393 = tested on: RXF 393
786-0 = tested on: 786-0
SF-295 = tested on: SF-295

COc1ccc2[nH]cc(CCNC(=O)[C@](O)(Cc3cn(C)c4ccccc34)[C@@]3(O)OCC(O)C3O)c2c1 (stereo partly specified)
GI50 (HCT-116): 47.3 µM (inactive) | GI50 (CAKI-1): > 100 µM (inactive) | GI50 (ACHN): > 100 µM (inactive) | GI50 (NCI-H226): > 100 µM (inactive) | GI50 (NCI-H23): > 100 µM (inactive) | GI50 (M14): > 100 µM (inactive) | GI50 (KM12): > 100 µM (inactive) | GI50 (SF-268): 82.6 µM (inactive) | GI50 (HL-60): 32.1 µM (inactive) | GI50 (OVCAR-5): > 100 µM (inactive) | GI50 (RXF 631): > 100 µM (inactive) | GI50 (OVCAR-3): > 100 µM (inactive) | GI50 (SF-539): 40.4 µM (inactive) | GI50 (SK-MEL-5): > 100 µM (inactive) | GI50 (LXFL 529): 67.8 µM (inactive) | GI50 (SNB-75): 38.5 µM (inactive) | GI50 (UACC-62): 58.9 µM (inactive) | GI50 (DMS-114): 35.6 µM (inactive) | GI50 (KM-20L2): > 100 µM (inactive) | GI50 (HOP-62): > 100 µM (inactive) | GI50 (DMS-273): > 100 µM (inactive) | GI50 (CCRF-CEM): 35.8 µM (inactive) | GI50 (XF498): 90.6 µM (inactive) | GI50 (A549): > 100 µM (inactive) | GI50 (OVCAR-8): > 100 µM (inactive) | GI50 (SN12C): > 100 µM (inactive) | GI50 (EKVX): > 100 µM (inactive) | GI50 (OVCAR-4): > 100 µM (inactive) | GI50 (SW-620): > 100 µM (inactive) | GI50 (UACC-257): > 100 µM (inactive) | GI50 (HT-29): > 100 µM (inactive) | GI50 (COLO 205): > 100 µM (inactive) | GI50 (LOX IMVI): > 100 µM (inactive) | GI50 (SK-MEL-28): > 100 µM (inactive) | GI50 (SK-OV-3): > 100 µM (inactive) | GI50 (SK-MEL-2): > 100 µM (inactive) | GI50 (MOLT-4): 37 µM (inactive) | GI50 (NCI-H522): > 100 µM (inactive) | GI50 (SR): > 100 µM (inactive) | GI50 (K562): 74 µM (inactive) | GI50 (U-251): > 100 µM (inactive) | GI50 (Malme-3M): > 100 µM (inactive) | GI50 (M19-MEL): > 100 µM (inactive) | GI50 (TK-10): > 100 µM (inactive) | GI50 (NCI-H460): 77.4 µM (inactive) | GI50 (RPMI-8226): 39.4 µM (inactive) | GI50 (HOP-18): > 100 µM (inactive) | GI50 (IGROV-1): > 100 µM (inactive) | GI50 (HCC 2998): > 100 µM (inactive) | GI50 (HCT-15): > 100 µM | GI50 (DLD-1): > 100 µM (inactive) | GI50 (HOP-92): 50.2 µM (inactive) | GI50 (SNB-19): > 100 µM (inactive) | GI50 (RXF 393): > 100 µM (inactive) | GI50 (786-0): > 100 µM (inactive) | GI50 (SF-295): > 100 µM (inactive)
